{"source": "patent US20110152317A1", "about": "“P[…] OCCURRENCE OF OBESITY” (DUKE UNIVERSITY, priority 2008, published 2011)", "key": {"[1]": {"test_system": "male C57BL/6 mice on a high-fat diet", "assay": "Chloroquine injection in mice on high-fat diet (obesity, insulin resistance, skeletal muscle lipid profiling)", "format": "in vivo, mouse", "conditions": "high-fat diet (60% of calories from fat), 60 mg/kg intraperitoneal daily for 12 weeks", "source_text": "Five adult (12 week old) male C57BL/6 mice (The Jackson Laboratory, Bar Harbor, ME) were subjected to 12 weeks of high-fat diet (HF) (60% of calories from fat) with a separate group of five mice on normal chow (NC) for the same duration as control. A significant difference in body weight between NC and HF mice was detected 4 weeks after implementation of the high-fat diet, and the body weight of the HF group continued to increase to about 55.4% above the value in age matched NC mice after 12 weeks of the high-fat diet. […] NC mice. The development of severe obesity in HF mice was accompanied by 89.0% increase (P<0.001) in blood glucose area under curve (AUC) during a glucose tolerance test. These findings indicate that high-fat diet in adult mice induced severe obesity and insulin resistance.\nFive of the same kind of non-obese mice as used in Background Example 1 on a high-fat diet (60% of calories from fat) were injected with chloroquine (60 mg/kg, intraperitoneal) daily for 12 weeks of high-fat diet feeding."}, "human on high-fat diet": {"test_system": "human on high-fat diet", "assay": "Oral chloroquine in a human on a high-fat diet (Working Example I)", "format": "in vivo", "conditions": "person, 400 mg orally daily, 12 weeks", "protocol": "A person with BMI of 20 eats a diet where 50% of calories come from fat, e.g. cheeseburgers or steak, onion rings or french fries, and ice cream or pecan pie for dessert at dinner, cold cut sandwich and fries or pizza for lunch, eggs, sausage, hash browns for breakfast. The subject also orally takes 400 mg chloroquine orally daily. The regimen is continued for 12 weeks."}}, "data": [{"compound": "CCN(CC)CCCC(C)Nc1ccnc2cc(Cl)ccc12", "note": "(centres unmarked) [chloroquine]", "values": [{"measurement": "high-fat diet induced changes in skeletal muscle (mass spectrometry-based profiling of lipid species)", "setting": "[1]", "result": "blocked high-fat diet induced changes in skeletal muscle"}, {"measurement": "occurrence of insulin resistance (glucose tolerance test)", "setting": "[1]", "result": "blocked the occurrence of obesity and insulin resistance"}, {"measurement": "occurrence of obesity", "setting": "[1]", "result": "blocked the occurrence of obesity"}, {"measurement": "BMI", "setting": "human on high-fat diet; baseline BMI 20, diet 50% of calories from fat", "result": 20}, {"measurement": "development of insulin resistance", "setting": "human on high-fat diet; diet 50% of calories from fat", "result": "does not develop insulin resistance"}]}]}
